Publication PMC8815882, “Screening the pandemic response box identified benzimidazole carbamates, Olorofim and ravuconazole as promising drug candidates for the treatment of eumycetoma” (PLoS Neglected Tropical Diseases, 2022)
Where two headings read alike, the source gives them in different places.

Tested on: M. mycetomatis genome strain MM55
Test: CLSI M38-A2 based in vitro susceptibility screening (XTT or resazurin), growth at fixed concentration
Assay type: cell-based, Madurella mycetomatis
Conditions: Madurella mycetomatis
[1] = 25 uM, mean of three replicates, read-out: Percentage survival at 25um, 25 uM mean
[2] = 25 uM, replicate A, read-out: Percentage survival at 25um, 25 um A
[3] = 25 uM, replicate B, read-out: Percentage survival at 25um, 25 uM B
[4] = 25 uM, replicate C, read-out: Percentage survival at 25um, 25 uM C
[5] = mean of three replicates, read-out: Percentage survival at 100um, 100 uM mean
[6] = replicate 1, read-out: Percentage survival at 100um, 100 uM A (first replicate column)
[7] = replicate 2, read-out: Percentage survival at 100um, 100 uM A (second replicate column)
[8] = replicate 3, read-out: Percentage survival at 100um, 100 uM A (third replicate column)
[9] = first replicate column, read-out: Percentage survival at 100um, 100 uM A
[10] = second replicate column, read-out: Percentage survival at 100um, 100 uM A
[11] = third replicate column, read-out: Percentage survival at 100um, 100 uM A
[12] = mean of replicates, read-out: Percentage survival at 100um, 100 uM mean
[13] = 25 uM, mean of replicates, read-out: Percentage survival at 25um, 25 uM mean
[14] = replicate 1, read-out: Percentage survival at 100um, 100 uM A
[15] = replicate 2, read-out: Percentage survival at 100um, 100 uM A
[16] = replicate 3, read-out: Percentage survival at 100um, 100 uM A
[17] = 25 uM, mean, read-out: Percentage survival at 25um, 25 uM mean
[18] = mean, read-out: Percentage survival at 100um, 100 uM mean
[19] = replicate (first column), read-out: Percentage survival at 100um, 100 uM A
[20] = replicate (second column), read-out: Percentage survival at 100um, 100 uM A
[21] = replicate (third column), read-out: Percentage survival at 100um, 100 uM A

`N[C@@H]1CN(c2c(F)cc3c(=O)c(C(=O)O)cn([C@@H]4C[C@@H]4F)c3c2Cl)CC12CC2` [MMV1579850] showed an activity at 25 µM [1] of 85.6%, an activity at 25 µM [2] of 82.4% and an activity at 25 µM [3] of 85.7%. The activity at 25 µM [4] was 88.6%, the activity at 100 µM [5] was 83.7% and the activity at 100 µM [6] was 86.1%. For the same compound, the Percent fungal survival at 100 µM [7] was 82.9% and the activity at 100 µM [8] was 82%.

`NC(=O)c1c(N)sc2c1CCCCC2` [MMV056052] gave an activity at 25 µM [1] of 95.4%, an activity at 25 µM [2] of 93.9% and an activity at 25 µM [3] of 104%. It also gave an activity at 25 µM [4] of 87.9%, an activity at 100 µM [5] of 84.7% and an activity at 100 µM [6] of 86.2%. For the same compound, the Percent fungal survival at 100 µM [7] was 80.1% and the activity at 100 µM [8] was 87.9%.

`Cc1[nH]c2ccccc2c1CCNCc1ccc(/C=C/C(=O)NO)cc1` [MMV010036] was tested, and the activity at 25 µM [1] was 90.9%, the activity at 25 µM [2] was 98.2% and the activity at 25 µM [3] was 95.9%. The activity at 25 µM [4] was 78.7%, the activity at 100 µM [9] was 85.9% and the activity at 100 µM [5] was 77.1%. The activity at 100 µM [10] was 69.6% and the activity at 100 µM [11] was 75.6%.

`C[C@H]1CC[C@]2(NC1)O[C@H]1C[C@H]3[C@@H]4CC[C@H]5C[C@@H](O)CC[C@]5(C)[C@H]4CC[C@]3(C)[C@H]1[C@@H]2C` [MMV003069] showed an activity at 25 µM [2] of 98.3%, an activity at 100 µM [12] of 85.8% and an activity at 100 µM [6] of 80.2%. The activity at 100 µM [7] was 92.8%, the activity at 100 µM [8] was 84.2% and the activity at 25 µM (read-out: Percentage survival at 25um, 25 uM B) was 98.8%. For the same compound, the activity at 25 µM (read-out: Percentage survival at 25um, 25 uM C) was 91.1% and the activity at 25 µM (read-out: Percentage survival at 25um, 25 uM mean) was 96.1%.

`Cc1c(N)cccc1Cn1ccc(OCCc2cccs2)cc1=O` [MMV1578557] gave an activity at 25 µM (25 uM, mean of three, M. mycetomatis MM55, read-out: Percentage survival at 25um, 25 uM mean) of 79.8%, an activity at 25 µM (25 uM, replicate A, M. mycetomatis MM55, read-out: Percentage survival at 25um, 25 um A) of 82.2% and an activity at 25 µM (25 uM, replicate B, M. mycetomatis MM55, read-out: Percentage survival at 25um, 25 uM B) of 84.5%. For the same compound, the activity at 25 µM (25 uM, replicate C, M. mycetomatis MM55, read-out: Percentage survival at 25um, 25 uM C) was 72.6%, the activity at 100 µM (mean of three, M. mycetomatis MM55, read-out: Percentage survival at 100um, 100 uM mean) was 78.3% and the activity at 100 µM (replicate 1, M. mycetomatis MM55, read-out: Percentage survival at 100um, 100 uM A (first replicate column)) was 73%. The Percent fungal survival at 100 µM (replicate 2, M. mycetomatis MM55, read-out: Percentage survival at 100um, 100 uM A (second replicate column)) was 81.9% and the activity at 100 µM (replicate 3, M. mycetomatis MM55, read-out: Percentage survival at 100um, 100 uM A (third replicate column)) was 80%.

With `O=C(Nc1ccc(F)cc1)c1nn(-c2ccccc2)c(=O)cc1Cl` [MMV1578555] the activity at 25 µM [13] was 76.7%, the activity at 25 µM [2] was 84.2% and the activity at 25 µM [3] was 79.1%. The activity at 25 µM [4] was 66.7%, the activity at 100 µM [12] was 1.51% and the activity at 100 µM [14] was 0.758%. It also gave an activity at 100 µM [15] of 0.453% and an activity at 100 µM [16] of 3.31%.

`CCCCc1ccc(S(=O)(=O)Nc2cc(C)on2)cc1` [MMV1782108] gave an activity at 25 µM [17] of 86.1%, an activity at 25 µM [2] of 90.5% and an activity at 25 µM [3] of 80.2%. It also gave an activity at 25 µM [4] of 87.6%, an activity at 100 µM [18] of 82.9% and an activity at 100 µM [19] of 79.8%. It also gave an activity at 100 µM [20] of 82.7% and an activity at 100 µM [21] of 86.3%.

Work on `Nc1nc(O)c2ncn(COCCO)c2n1` [MMV001961] yielded an activity at 25 µM [1] of 90.3%, an activity at 25 µM [2] of 88.7% and an activity at 25 µM [3] of 94.5%. It also gave an activity at 25 µM [4] of 87.8%, an activity at 100 µM [9] of 88.4% and an activity at 100 µM [5] of 84.1%. It also gave an activity at 100 µM [10] of 78.9% and an activity at 100 µM [11] of 85%.

Work on `O=C(O)CCNC(=O)c1ccccc1` [MMV002224] yielded an activity at 25 µM [13] of 93.9%, an activity at 25 µM [2] of 90.2% and an activity at 25 µM [3] of 96.2%. For the same compound, the activity at 25 µM [4] was 95.4%, the activity at 100 µM [12] was 89.7% and the activity at 100 µM [14] was 96%. It also gave an activity at 100 µM [15] of 83.6% and an activity at 100 µM [16] of 89.5%.

`Cc1cc(NS(=O)(=O)c2ccc(-c3ccc(F)cc3F)cc2)no1` [MMV1782217] showed an activity at 25 µM [17] of 78.8%, an activity at 25 µM [2] of 76.3% and an activity at 25 µM [3] of 79.1%. The activity at 25 µM [4] was 81.1%, the activity at 100 µM [18] was 93.7% and the activity at 100 µM [19] was 83.4%. It also gave an activity at 100 µM [20] of 76.4% and an activity at 100 µM [21] of 121%.
